Test results: patent US20230346827A1 (priority 2020, published 2023)

Test system: keratinocytes and HDFn + (IL-1β, TNFα, IFNy and TGFβ)
Experiment: BioMAP KF3CT system
Format: cell-based, human
Details: annotated relative to vehicle controls
Text: Cell types and stimuli used in each system are as follows: 3C system [HUVEC + (IL-1β, TNFα and IFNy)], 4H system [HUVEC + (IL-4 and histamine)], LPS system [PBMC and HUVEC + LPS (TLR4 ligand)], SAg system [PBMC and HUVEC + TCR ligands], BT system [CD19+ B cells and PBMC + (α-IgM and TCR ligands)], BF4T system [bronchial epithelial cells and HDFn + (TNFα and IL-4)], BE3C system [bronchial epithelial cells + (IL-1β, TNFα and IFNy)], CASM3C system [coronary artery smooth muscle cells + (IL-1 β, TNFα and IFNy)], HDF3CGF system [HDFn + (IL-1β, TNFα, IFNy, EGF, bFGF and PDGF-BB)], KF3CT system [keratinocytes and HDFn + (IL-1β, TNFα, IFNy and TGFβ)], MyoF system [differentiated lung myofibroblasts + (TNFα and TGFβ)] and Mphg system [HUVEC and M1 macrophages + Zymosan (TLR2 ligand)].
Systems are derived from either single cell types or co-culture systems. Adherent cell types are cultured in 96 or 384-well plates until confluence, followed by the addition of PBMC (SAg and LPS systems). […] Soluble factors from supernatants are quantified using either HTRF® detection, bead-based multiplex immunoassay or capture ELISA. Overt adverse effects of test agents on cell proliferation and viability (cytotoxicity) are detected by sulforhodamine B (SRB) staining, for adherent cells, and alamarBlue® reduction for cells in suspension. […]

For sodium salt of dextran sulfate [LMW-DS], the Decreased biomarker activity was “MCP-1” and the Increased biomarker activity was “IL-8”.
